# Marks after values point to notes of the source that are not given here.
# Columns and labels:
# [1] = biological target: T1, human PPARα ligand binding domain (Homo sapiens, UniProt Q07869); assay: PPARα ligand binding study with purified ligand binding domain; conditions: competition with labeled PPARα ligand BMS-compound B
# T1 sequence (Q07869 239-466 limits assumed): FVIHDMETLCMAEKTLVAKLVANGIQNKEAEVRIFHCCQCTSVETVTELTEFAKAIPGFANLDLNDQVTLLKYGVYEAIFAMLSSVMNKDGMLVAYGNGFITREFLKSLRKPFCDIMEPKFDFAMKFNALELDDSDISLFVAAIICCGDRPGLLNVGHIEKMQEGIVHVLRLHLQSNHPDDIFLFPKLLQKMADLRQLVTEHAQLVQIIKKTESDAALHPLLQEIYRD
# Description: FIG. 1B: Illustrates the binding of a labeled authentic PPARα ligand (BMS-compound B) to human PPARα binding domain.
# Compound Y is a compound synthesized by the scheme outlined in Example 1 herein. […] The in vitro ligand binding studies with purified ligand binding domain thus show the ability of Compound Y to bind potently to both PPARγ and PPARα. It is however, well known for the nuclear hormone receptor family of transcription factors that (PPARs are members of this family) that a compound which potently binds to (i.e. a ligand) can act as an agonist (ligand which activates) and an antagonist (ligand which inactivates the receptor).
# [2] = biological target: T2, PPARα (Homo sapiens, UniProt Q07869); assay: PPARα dependent SEAP reporter transactivation in HepG2 cells; format: cell-based
# T2 construct: HepG2 cells (human liver origin), that express endogenous PPARα gene were stably transfected with a PPAR responsive SEAP reporter gene; endogenous in cells; host or cells: HepG2 cells stably transfected with a PPAR responsive SEAP reporter
# T2 sequence (Q07869 1-468): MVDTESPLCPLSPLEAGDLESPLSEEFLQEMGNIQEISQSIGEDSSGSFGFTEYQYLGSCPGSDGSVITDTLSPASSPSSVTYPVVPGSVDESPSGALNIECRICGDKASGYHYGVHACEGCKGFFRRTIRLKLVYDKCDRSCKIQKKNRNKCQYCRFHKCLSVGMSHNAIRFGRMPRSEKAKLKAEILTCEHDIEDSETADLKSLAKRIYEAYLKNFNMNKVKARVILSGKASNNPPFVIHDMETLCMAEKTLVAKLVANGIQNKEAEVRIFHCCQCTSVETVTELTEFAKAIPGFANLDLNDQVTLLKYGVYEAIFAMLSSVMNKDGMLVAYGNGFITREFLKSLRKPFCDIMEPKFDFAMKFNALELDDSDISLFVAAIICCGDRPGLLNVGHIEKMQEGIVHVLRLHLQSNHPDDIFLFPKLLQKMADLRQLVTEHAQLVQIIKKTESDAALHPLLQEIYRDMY
# Description: HepG2 cells (human liver origin), that express endogenous PPARα gene were stably transfected with a PPAR responsive SEAP reporter gene.
# Reporter gene constructs were made by inserting either 3 repeats of the rat fatty acid binding protein PPRE including the 7 nucleotides immediately 5′, or 4 repeats of the gal4 response element upstream of the SV40 early minimal promoter of pSEAP2 (Clontech), 3×PPRE-SEAP and gal4-SEAP respectively. The chimeric receptor was made by cloning the cDNA encoding the ligand binding domain of human PPAR α in frame and 3′ to the gal4 DNA binding domain (amino acids 1-47) in the mammalian bicistronic expression vector pIRESlneo (Clontech), gal4-PPAR α. […] Following the incubation, media was removed, and endogenous phosphatases were inactivated as indicated above and SEAP activity in 25 μl aliquots of processed media was assayed in clear bottom, black 96 well plate (Falcon) by the addition of 100 μl Attophos reagent (Promega), incubation for 5 minutes in the dark at room temperature, and measuring the increase in fluorescence (excitation 450 nm, emission 580 nm) in a CytoFluor series 4000 plate reader (Perseptive Biosystems) 8 cycles, 1 minute/cycle. The relative rates of fluorescence emission were calculated as fold increase over DMSO control. […] The ED50 values were calculated using standard equations for mid-point of the activity curves.
# [3] = biological target: T3, human PPARγ ligand binding domain (Homo sapiens, UniProt P37231); assay: PPARγ ligand binding study with purified ligand binding domain; conditions: competition with labeled PPARγ ligand BMS-compound A
# T3 sequence (P37231 238-503 limits assumed): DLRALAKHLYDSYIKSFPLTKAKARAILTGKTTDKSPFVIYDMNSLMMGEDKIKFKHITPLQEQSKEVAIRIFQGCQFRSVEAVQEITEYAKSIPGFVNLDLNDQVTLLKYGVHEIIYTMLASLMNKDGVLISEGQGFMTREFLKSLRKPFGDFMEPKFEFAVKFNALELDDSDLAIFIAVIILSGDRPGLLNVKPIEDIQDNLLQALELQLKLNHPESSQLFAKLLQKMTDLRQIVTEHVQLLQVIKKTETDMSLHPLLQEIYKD
# Description: Compound Y is a compound synthesized by the scheme outlined in Example 1 herein.
# [4] = test system: mouse 3T3-L1 pre-adipocytes; assay: Inhibition of rosiglitazone induced differentiation of 3T3-L1 pre-adipocytes (glycerol release); format: cell-based; conditions: rosiglitazone induced differentiation of 3T3-L1 cells
# Method: PPARγ has been considered a major trigger for the adipocyte differentiation process (see Tontonoz et al., Current Biology, 571-576, 1995).
# 5×10^5 3T3-L1 cells per plate were added to 96 well plates and cultured in DMEM-high glucose and 10% FBS medium for two days, before induction. Cells were induced for 48 hr with 1 μm dexamethasone, 5 μg/ml insulin, and […] isobutylmethylxanthine (IBMX) in the same medium. […] After a total of 5 days incubation, 4 μl of media from each well were collected and diluted into 40 μl of H2O in 96 well ELISA plate, 300 μl of Triglycerides Blank Reagent (Bayer Diagnostics) was added into each well and incubated for 5 min at room temperature. […] The ED50 values were calculated using standard equations for mid-point of the activity inhibition curves.
# [5] = biological target: PPARγ (Chlorocebus sabaeus, UniProt A0A0D9RBU3); assay: Inhibition of rosiglitazone induced SEAP reporter transactivation in CV-1 cells; format: cell-based, primate; conditions: read-out: ED50 for inhibition of rosiglitazone induced transactivation of SEAP gene, PPAR responsive SEAP reporter
# Sequence of PPARγ (A0A0D9RBU3 entry or part of it): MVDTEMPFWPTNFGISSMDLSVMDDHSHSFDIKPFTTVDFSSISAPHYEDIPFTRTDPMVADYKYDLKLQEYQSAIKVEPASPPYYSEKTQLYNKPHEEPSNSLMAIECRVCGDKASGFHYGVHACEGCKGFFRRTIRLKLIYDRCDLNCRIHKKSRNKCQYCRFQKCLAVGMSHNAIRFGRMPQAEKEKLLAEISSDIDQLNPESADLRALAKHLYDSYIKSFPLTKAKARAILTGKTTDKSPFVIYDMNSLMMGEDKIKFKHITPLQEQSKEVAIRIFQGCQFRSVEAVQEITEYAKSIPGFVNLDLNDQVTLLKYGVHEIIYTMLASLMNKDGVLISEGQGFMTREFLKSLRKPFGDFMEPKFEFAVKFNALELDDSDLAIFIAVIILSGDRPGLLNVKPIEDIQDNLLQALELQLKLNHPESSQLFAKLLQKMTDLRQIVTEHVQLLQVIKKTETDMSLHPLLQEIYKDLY
# Description: The established CV-1 cells (primate kidney origin), that show expression of endogenous PPARγ, were stably transfected with a PPAR responsive secreted alkaline phosphatase (SEAP) reporter gene.
# CV-1 cells (these cell express endogenous PPARγ gene) were transfected with a 3×PPRE-SEAP reporter gene DNA construct and stable colonies were selected, expanded and tested for responsiveness to compounds using standard protocols. SEAP reporter gene constructs were made by inserting 3 repeats of the rat fatty acid binding protein PPRE including the 7 nucleotides immediately 5′ to the SV40 early minimal promoter of pSEAP2 (Clontech). 1.2×10^6 CV-1/PPRE-SEAP cells were plated in a 96 well plate one day before compound addition. […] 150 μl aliquots of each concentration were delivered to two non-adjacent wells. […] Media was collected in fresh 96 well plates 40 hrs following incubation with compounds and assayed for SEAP activity. […] The plate was incubated for 5′ in the dark, and then the fluorescence measured in a CytoFluor series 4000 plate reader (Perseptive Biosystems): excitation filter, 450/50 nm; emission filter, 580/50 nm; 8 cycles, 1 minute/cycle, 3 reads/well/cycle. […] The ED50 values were calculated using standard equations for mid-point of the activity inhibition curves.
# [6] = test system: Gene expression in WAT; assay: Gene expression profiling of white adipose tissue of treated db/db mice; format: in vivo; conditions: obese diabetic db/db mice
# Description: Examples of such genes include adipophilin and keratinocyte fatty acid binding protein, the gene products of these genes are involved in intracellular fatty acid trafficking).
# Adipose (fat) tissue is a major place of synthesis of PAI-1, a risk factor for thrombosis, angiotensinogen precursor, a risk factor for hypertension and renin, a risk factor for hypertension (see Ahima and Flier, TEM, 11: 327-332, 2000).
# [7] = test system: obese diabetic db/db mice; assay: Plasma glucose and lipids in treated obese diabetic db/db mice; format: in vivo; conditions: 3 mg/kg/day
# Description: As illustrated in Table 3 treatment of obese diabetic db/db mice with the dual PPARγ antagonist/PPARα agonist Compound Y results in no significant change in plasma glucose and a significant decrease in plasma triglycerides and free fatty acids levels. As indicated before, changes in lipid and glycemic conditions are two significant potential concerns of reducing PPARγ activity. Based on the study described here it is concluded that obese mammals can be safely treated with a dual PPARγ antagonist/PPARα agonist. The reduction in plasma triglycerides and free fatty acids are likely due to the […] activity of Compound Y.
# [8] = test system: diet induced obese mice; assay: Diet induced obese mice: body composition, plasma and liver parameters; format: in vivo
# Description: As indicated before, changes in lipid and glycemic conditions are two potential concerns of reducing PPARγ activity. Based on the study described here it is concluded that safe reduction of fat mass in an obese diabetic mammal (including human) is possible through administration of a dual PPARγ antagonist/PPARα agonist. This feature is in contrast to the observed hyperlipidemia and hyperglycemia in lipodystrophic patients and in patients with severe mutations in PPARγ gene.
# In obese mice, as in obese human, the liver lipid level is elevated. Often, this is accompanied by an increase in plasma liver enzyme ALT level indicating to liver damage. Upon treatment with dual PPARγ antagonist/PPARα agonist Compound Y there was a substantial reduction in liver triglyceride content, although not reaching statistical significance, which was accompanied by a significant reduction in plasma liver enzyme ALT levels. Both these changes are indicative of improvement in liver function as a result of stimulation of PPARα mediated fatty acid oxidation and reduction of lipid synthesis leading to reduced lipid content (see. Torra et al., Current Opinion in Lipidology, 10: 151-159, 1999; Kersten et al., Nature, 405: 421424, 2000).
# C57BL/6 mice were fed a diet rich in fat (40%) and sucrose (40%) (see, York {Genetic models of obesity} and Sclafani {Dietary models of obesity}, both in Obesity, Bjorntorp and Brodoff eds. JB Lippincott Company, 1992; McIntosh and Pederson; McNeill. eds. CRC press LLC, 337-398, 1999; Farrelly et al., Proc. Natl. Acad. Sci. 96: 14511-14516, 1999). Under these dietary conditions, C57BL/6 mice gain considerable body weight and become obese. These mice were treated with a dual PPARγ antagonist/PPARα agonist (dose 0.01 to 100 mg/kg/day), administered in a pharmacologically acceptable vehicle (such as but not limited to, 5% CM-cellulose) through orally, intravenous, subcutaneous or intraportal injection, or mixed with food or water, acutely or over an extended period of time. During the course of the study, various parameters such as water and food consumption, body weight gain, body composition by dual emission X-ray analyzer (DEXA, this instrument accurately measures body fat mass, body lean muscle mass and body bone mineral content), body temperature was measured by standard methods. Through tail vein bleeding, blood was collected in heparin-EDTA coated tubes to prevent clotting and blood plasma was separated and analyzed for glucose, free fatty acids, triglycerides and cholesterol using reagent kits available from Roche Diagnostics in a COBAS-MIRA instrument. Insulin and leptin are measured by commercially available ELISA kits. Compounds that act to reduce body weight and or decrease glucose were selected. At the end of the treatment period animals were euthanized by brief exposure to CO2 and internal organs such as liver and white adipose tissue were harvested for additional analysis. These analyses may include, but not limited to, determination of lipid content, and effect on various PPARγ and PPARα target gene expression.
# [9] = 10 mg/kg/day once a day, 3 weeks
# [10] = 10 mg/kg/day, 3 weeks, P < 0.05
# [11] = 3 weeks at 10 mg/kg/day, once a day
molecule,measurement,setting,value
"CCCCCCCN(CCc1ccc(O[C@@](C)(CC)C(=O)O)cc1)C(=O)Nc1ccc(F)cc1F [GW-2331, reference compound]",IC50,[1],410 nM
BMS-250773 [reference compound],EC50,[2],63 nM
Cc1oc(-c2ccccc2)nc1CCOc1cccc(Cc2nn(-c3ccccc3)nc2C(=O)O)c1 [Compound Y],IC50,[3],69 nM
same,IC50,[1],69 nM
same,ED50 for inhibition of differentiation,[4],9.9 µM
same,EC50,[5],1500 nM
same,EC50,[2],587 nM
same,Adipophilin gene expression in WAT,[6],4.1
same,Angiotensinogen precursor gene expression in WAT,[6],0.46
same,Glycerol-3 PO4 dehydrogenase gene expression in WAT,[6],0.39
same,HMGic gene expression in WAT,[6],2.2
same,Keratinocyte fatty acid binding protein gene expression in WAT,[6],3.3
same,PAI-1 gene expression in WAT,[6],0.45
same,Free fatty acids,[7],0.76 ± 0.12 meq/L
same,Glucose,[7],683.0 ± 25.2 mg/dL
same,"Glucose, change versus vehicle",[7],−13%
same,Triglyceride,[7],145.3 ± 12.5 mg/dL
same,"Free fatty acids, change versus vehicle",[7]; p < 0.05,−36%*
same,"Triglyceride, change versus vehicle",[7]; p < 0.05,−45%*
same,"plasma lipid (free fatty acids, triglycerides and cholesterol) and glycemic (glucose and insulin) parameters (in words)",[8],very little change
same,Liver triglycerides,[8]; 10 mg/kg/day,55.4 ± 7.0 mg/g
same,% Fat body mass,[8]; [9],41.5 ± 1.8%
same,% Lean body mass,[8]; [9],56.0 ± 1.8%
same,"% Fat body mass, change versus vehicle",[8]; [10],(−12%)*
same,"% Lean body mass, change versus vehicle",[8]; [10],(+11%)*
same,"ALT, change versus vehicle","[8]; 10 mg/kg/day, P < 0.05",(−38%)*
same,"Liver triglycerides, change versus vehicle","[8]; 10 mg/kg/day, not statistically significant",(−24%)
same,body weight (in words),[8]; [11],no significant reduction in body weight
same,increase in lean body mass,[8]; [11],14%
same,reduction of body fat mass,[8]; [11],15%
same,ALT,"[8]; plasma, 10 mg/kg/day",98.0 ± 12.6 IU/L
same,Cholesterol,"[8]; plasma, 10 mg/kg/day",270.4 ± 9.4 mg/dL
same,Glucose,"[8]; plasma, 10 mg/kg/day",260.7 ± 12.3 mg/dL
same,Insulin,"[8]; plasma, 10 mg/kg/day",8.2 ± 1.2 ng/mL
same,Triglyceride,"[8]; plasma, 10 mg/kg/day",105.5 ± 8.1 mg/dL
"CN(CCOc1ccc(CC2SC(=O)NC2=O)cc1)c1ccccn1 (stereo not drawn) [rosiglitazone, reference compound]",G-protein coupled receptor 26 gene expression in WAT,[6],4.3
same,Renin gene expression in WAT,[6],13.9
"CCCCCCCC1SC(CC(=O)N(Cc2ccccc2)Cc2ccccc2)C(=O)N1CCCCc1ccc(C(=O)O)cc1 (stereo not drawn) [GW0072, reference compound]",IC50,[3],280 nM
same,ED50 for inhibition of differentiation,[4],0.585 µM

# Reference: patent US6967212B2, “Substituted azole acid derivatives useful as antidiabetic and antiobesity agents and method” (Bristol-Myers Squibb Company, priority 2001, dated 2005)
